Measured values reported in patent US10654872B1, “Polymorphs of dolutegravir and salts thereof” (Laurus Labs Limited, priority 2015, dated 2020).

Key:
Type in all cases: physicochemical
[1] = Stability data of dolutegravir sodium Form-L9 stored at 40±2° C./75±5% RH
Procedure: Dolutegravir sodium Form-L9 was packed in a Low density polyethylene (LDPE) bag with a strip seal, which is again kept in a second low density polyethylene bag with strip seal. The LDPE bag is kept in a high density polyethylene (HDPE) container and well closed and loaded for stability chamber. […] The purity of dolutegravir sodium was analysed using high performance liquid chromatography (“HPLC”) with the conditions is tabulated below: [table]

[2] = Thermal stability of Form-L9 in oven at 60° C. and 100° C. (PXRD, DSC); conditions: for Form after heating, DSC / Form after heating, PXRD: 24 hrs
Procedure: Dolutegravir sodium Form-L9 was kept in an oven at 60° C. and 100° C. for 24 hrs.

[3] = Hygroscopic study at 85% relative humidity; conditions: room temperature, one week (24, 48, 72, 168 hours)
Procedure: Dolutegravir sodium Form-L9 was exposed to 85% relative humidity at room temperature for one week and was analyzed by PXRD at different time intervals such as 24 hours, 48 hours, 72 hours and 168 hours. […] The overlaid PXRD pattern of dolutegravir sodium Form-L9 subjected to hygroscopic study at 85% RH is represented as Figure-25.

[4] = Aqueous solubility at different pH buffers, UV quantification

Des fluoro dolutegravir ([1]; 1 month): 0.08 % w/w | PXRD (polymorphic form) ([1]; 1 month): Form-L9 | Purity by HPLC ([1]; 1 month): 99.9 % w/w | Water content ([1]; 1 month): 1.9 % w/w | Des fluoro dolutegravir ([1]; 2 month): 0.09 % w/w | PXRD (polymorphic form) ([1]; 2 month): Form-L9 | Purity by HPLC ([1]; 2 month): 99.9 % w/w | Water content ([1]; 2 month): 2 % w/w | Des fluoro dolutegravir ([1]; 3 month): 0.10 % w/w | PXRD (polymorphic form) ([1]; 3 month): Form-L9 | Purity by HPLC ([1]; 3 month): 99.8 % w/w | Water content ([1]; 3 month): 2.3 % w/w | Des fluoro dolutegravir ([1]; Initial): 0.09 % w/w | PXRD (polymorphic form) ([1]; Initial): Form-L9 | Purity by HPLC ([1]; Initial): 99.8 % w/w | Water content ([1]; Initial): 2.2 % w/w | Stability at elevated temperatures ([2]; 60° C. and 100° C. for 24 hours): stable even at elevated temperatures | Form after heating, DSC ([2]; 60° C.): Form-L9 | Form after heating, PXRD ([2]; 60° C.): Form-L9 | Form after heating, DSC ([2]; 100° C.): Form-L9 | Form after heating, PXRD ([2]; 100° C.): Form-L9 | Polymorphic nature after thermal study (PXRD and DSC) ([2]; oven at 60° C. and 100° C. for 24 hrs): same polymorphic nature retained | Polymorphic nature after hygroscopic study [3]: same polymorphic nature retained | Solubility profile versus dolutegravir sodium anhydrous form [4]: comparable
SMILES: C[C@@H]1CCO[C@H]2Cn3cc(C(=O)NCc4ccc(F)cc4F)c(=O)c(O)c3C(=O)N12 [Form-L9, dolutegravir sodium]
Polymorphic and chemical stability on storage ([1]; at least up to three months, LDPE bags in HDPE container): retained the same polymorphic and chemical identity
